Test results from patent US11325899B2, “Benzofurane and benzothiophene derivatives as PGE2 receptor modulators” (IDORSIA PHARMACEUTICALS LTD, priority 2017, dated 2022).

Columns and labels:
[1] = molecular target: T1, PTGER4 (EP4) (Homo sapiens, UniProt P35408); test: hEP4 b-arrestin assay (PathHunter HEK 293 PTGER4 b-arrestin cells); format: cell-based; conditions: antagonistic activity, beta-arrestin assay; read-out: hEP4 b-arr IC50
T1 construct: host or cells: HEK 293 (PathHunter PTGER4 b-arrestin cell line)
T1 sequence (P35408 whole entry): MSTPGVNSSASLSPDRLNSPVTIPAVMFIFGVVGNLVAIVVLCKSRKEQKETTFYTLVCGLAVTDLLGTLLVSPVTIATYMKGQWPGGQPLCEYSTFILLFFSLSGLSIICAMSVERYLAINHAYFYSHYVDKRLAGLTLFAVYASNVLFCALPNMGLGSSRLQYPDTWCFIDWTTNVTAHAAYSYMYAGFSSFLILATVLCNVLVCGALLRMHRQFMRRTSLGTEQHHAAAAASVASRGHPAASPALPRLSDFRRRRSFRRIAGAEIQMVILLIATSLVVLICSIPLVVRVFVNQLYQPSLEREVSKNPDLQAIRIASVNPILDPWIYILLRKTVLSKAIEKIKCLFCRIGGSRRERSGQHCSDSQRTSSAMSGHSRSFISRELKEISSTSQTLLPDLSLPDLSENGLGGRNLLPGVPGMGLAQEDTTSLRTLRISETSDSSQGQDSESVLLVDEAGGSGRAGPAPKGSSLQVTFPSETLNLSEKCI
Summary of the method: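 β-Arrestin recruitment to EP4 was read as enzyme-fragment-complementation chemiluminescence in stably transfected HEK 293 cells. After 15 min compound preincubation at 37 °C (ranges 10 μM–2 nM or 1 μM–0.2 nM), cells were stimulated 120 min with PGE2 at 20 nM, its EC80. IC50 values were fitted from duplicates, with repeat measurements averaged.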

[2] = molecular target: T2, EP2 receptor (Homo sapiens, UniProt P43116); test: hEP2 cAMP assay (SF295 glioblastoma cells, HTRF cAMP, PGE2 stimulation); format: cell-based; conditions: antagonistic activity
T2 construct: SF295 glioblastoma cells express high endogenous EP2 and no EP4; host or cells: SF295 glioblastoma cells
T2 sequence (P43116 whole entry): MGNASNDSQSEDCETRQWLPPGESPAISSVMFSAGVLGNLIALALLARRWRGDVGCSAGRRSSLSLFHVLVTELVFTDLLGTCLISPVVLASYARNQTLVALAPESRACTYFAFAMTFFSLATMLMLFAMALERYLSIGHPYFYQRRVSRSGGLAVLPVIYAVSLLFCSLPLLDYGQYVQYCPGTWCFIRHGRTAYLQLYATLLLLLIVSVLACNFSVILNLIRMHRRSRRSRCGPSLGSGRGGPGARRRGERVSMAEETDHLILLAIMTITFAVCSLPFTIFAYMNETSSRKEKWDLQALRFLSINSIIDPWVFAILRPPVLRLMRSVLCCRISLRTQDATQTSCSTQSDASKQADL
Summary of the method: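 HTRF cAMP readout gave % cAMP relative to DMSO, fitted to IC50 with duplicate points. Compounds were preincubated 45 min at room temperature with EP2-expressing, EP4-negative SF295 cells in IBMX (2 mM)-containing buffer before a 30 min challenge with PGE2 at 75 nM final, its EC80.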

Row | Compound | IC50 [1] [nM] | IC50 [2] [nM]
1 | CCOc1cc(-c2cc(NCCc3c(C)sc4c(C)cc(F)cc34)ncn2)ccc1-c1noc(=O)[nH]1 [Example 155, 3-(2-Ethoxy-4-{6-[2-(5-fluoro-2,7-dimethyl-benzo[b]thiophen-3-yl)-ethylamino]-pyrimidin-4-yl}-phenyl)-[1,2,4]oxadiazol-5(4H)-one [tautomeric form: 3-(2-ethoxy-4-(6-((2-(5-fluoro-2,7-dimethylbenzo[b]thiophen-3-yl)ethyl)amino)pyrimidin-4-yl)phenyl)-[1,2,4]oxadiazol-5-ol]] | 47 | 87
2 | CCOc1cc(-c2cc(NCCc3c(C)sc4c(C)cc(F)cc34)ncn2)sc1C(=O)NS(N)(=O)=O [Example 156, 3-Ethoxy-5-(6-((2-(5-fluoro-2,7-dimethylbenzo[b]thiophen-3-yl)ethyl)amino)pyrimidin-4-yl)-N-sulfamoylthiophene-2-carboxamide] | 26 | 10
3 | CCOc1cc(-c2cc(NCCc3c(C)sc4c(C)cc(F)cc34)ncn2)sc1C(=O)NS(C)(=O)=O [Example 157, N-(3-Ethoxy-5-{6-[2-(5-fluoro-2,7-dimethyl-benzo[b]thiophen-3-yl)-ethylamino]-pyrimidin-4-yl}-thiophene-2-carbonyl)-methanesulfonamide] | 42 | 18
4 | CCOc1cc(-c2cc(NCCc3c(C)sc4c(C)cc(F)cc34)ncn2)sc1-c1nnn[nH]1 [Example 158, {6-[4-Ethoxy-5-(1H-tetrazol-5-yl)-thiophen-2-yl]-pyrimidin-4-yl}-[2-(5-fluoro-2,7-dimethyl-benzo[b]thiophen-3-yl)-ethyl]-amine] | 7 | 4
5 | CCOc1nc(-c2cc(NCCc3c(C)sc4c(C)cc(F)cc34)ncn2)sc1C(=O)O [Example 160, 4-Ethoxy-2-{6-[2-(5-fluoro-2,7-dimethyl-benzo[b]thiophen-3-yl)-ethylamino]-pyrimidin-4-yl}-thiazole-5-carboxylic acid] | 16 | 10
6 | CCc1nc(-c2cc(NCCc3c(C)sc4c(C)cc(F)cc34)ncn2)sc1C(=O)O [Example 161, 4-Ethyl-2-{6-[2-(5-fluoro-2,7-dimethyl-benzo[b]thiophen-3-yl)-ethylamino]-pyrimidin-4-yl}-thiazole-5-carboxylic acid] | 256 | 27
7 | CCOc1nc(-c2cc(NCCc3c(C)sc4c(C)cc(F)cc34)ncn2)sc1-c1noc(=O)[nH]1 [Example 162, 3-(4-Ethoxy-2-{6-[2-(5-fluoro-2,7-dimethyl-benzo[b]thiophen-3-yl)-ethylamino]-pyrimidin-4-yl}-thiazol-5-yl)-[1,2,4]oxadiazol-5(4H)-one [tautomeric form: 3-(4-ethoxy-2-(6-((2-(5-fluoro-2,7-dimethylbenzo[b]thiophen-3-yl)ethyl)amino)pyrimidin-4-yl)thiazol-5-yl)-[1,2,4]oxadiazol-5-ol]] | 5 | 35
8 | CCc1nc(-c2cc(NCCc3c(C)sc4c(C)cc(F)cc34)ncn2)sc1-c1noc(=O)[nH]1 [Example 163, 3-(4-Ethyl-2-{6-[2-(5-fluoro-2,7-dimethyl-benzo[b]thiophen-3-yl)-ethylamino]-pyrimidin-4-yl}-thiazol-5-yl)-[1,2,4]oxadiazol-5(4H)-one [tautomeric form: 3-(4-ethyl-2-(6-((2-(5-fluoro-2,7-dimethylbenzo[b]thiophen-3-yl)ethyl)amino)pyrimidin-4-yl)thiazol-5-yl)-[1,2,4]oxadiazol-5-ol]] | 17 | 20
9 | CCOc1cc(-c2cc(NCCc3c(C#N)sc4c(OC)cccc34)ncn2)ccc1CC(=O)O [Example 164, (4-{6-[2-(2-Cyano-7-methoxy-benzo[b]thiophen-3-yl)-ethylamino]-pyrimidin-4-yl}-2-ethoxy-phenyl)-acetic acid] | 50 | 348
10 | CCOc1cc(-c2cc(NCCc3c(C#N)sc4c(C)cc(F)cc34)ncn2)cc(F)c1CC(=O)O [Example 165, (4-{6-[2-(2-Cyano-5-fluoro-7-methyl-benzo[b]thiophen-3-yl)-ethylamino]-pyrimidin-4-yl}-2-ethoxy-6-fluoro-phenyl)-acetic acid] | 54 | 129
11 | Cc1sc2c(C)cccc2c1CCNc1cc(-c2ccc(C(=O)O)c(SCC(C)C)c2)ncn1 [Example 166, 4-{6-[2-(2,7-Dimethyl-benzo[b]thiophen-3-yl)-ethylamino]-pyrimidin-4-yl}-2-isobutylsulfanyl-benzoic acid] | 254 | 183
12 | CCCc1cc(-c2cc(NCCc3c(C#N)sc4c(C)cc(F)cc34)ncn2)ccc1C(=O)O [Example 167, 4-{6-[2-(2-Cyano-5-fluoro-7-methyl-benzo[b]thiophen-3-yl)-ethylamino]-pyrimidin-4-yl}-2-propyl-benzoic acid] | 34 | 11
13 | COc1cc(-c2cc(NCCc3c(C#N)sc4c(C)cc(F)cc34)ncn2)ccc1CC(=O)O [Example 168, (4-{6-[2-(2-Cyano-5-fluoro-7-methyl-benzo[b]thiophen-3-yl)-ethylamino]-pyrimidin-4-yl}-2-methoxy-phenyl)-acetic acid] | 66 | 3030
14 | CCCOc1cc(-c2cc(NCCc3c(C#N)sc4c(C)cc(F)cc34)ncn2)ccc1CC(=O)O [Example 169, (4-{6-[2-(2-Cyano-5-fluoro-7-methyl-benzo[b]thiophen-3-yl)-ethylamino]-pyrimidin-4-yl}-2-propoxy-phenyl)-acetic acid] | 100 | 142
15 | CCCc1cc(-c2cc(NCCc3c(C#N)sc4c(C)cc(F)cc34)ncn2)ccc1CC(=O)O [Example 170, (4-{6-[2-(2-Cyano-5-fluoro-7-methyl-benzo[b]thiophen-3-yl)-ethylamino]-pyrimidin-4-yl}-2-propyl-phenyl)-acetic acid] | 19 | 116
16 | Cc1cc(F)cc2c(CCNc3cc(-c4ccc(CC(=O)O)c(OC(C)C)c4)ncn3)c(C#N)sc12 [Example 171, (4-{6-[2-(2-Cyano-5-fluoro-7-methyl-benzo[b]thiophen-3-yl)-ethylamino]-pyrimidin-4-yl}-2-isopropoxy-phenyl)-acetic acid] | 57 | 275
17 | Cc1cc(F)cc2c(CCNc3cc(-c4ccc(C(=O)O)c(OC(C)C)c4)ncn3)c(C#N)sc12 [Example 172, 4-{6-[2-(2-Cyano-5-fluoro-7-methyl-benzo[b]thiophen-3-yl)-ethylamino]-pyrimidin-4-yl}-2-isopropoxy-benzoic acid] | 166 | 50
18 | CCOc1cc(-c2cc(NCCc3c(C#N)sc4c(C)cc(F)cc34)ncn2)ccc1OCCC(=O)O [Example 176, 3-(4-{6-[2-(2-Cyano-5-fluoro-7-methyl-benzo[b]thiophen-3-yl)-ethylamino]-pyrimidin-4-yl}-2-ethoxy-phenoxy)-propionic acid] | 19 | 37
19 | Cc1sc2c(C)cc(F)cc2c1CCNc1cc(-c2ccc(CC(=O)O)c(CC(C)C)c2)ncn1 [Example 182, (4-{6-[2-(5-Fluoro-2,7-dimethyl-benzo[b]thiophen-3-yl)-ethylamino]-pyrimidin-4-yl}-2-isobutyl-phenyl)-acetic acid] | 164 | 617
20 | Cc1sc2c(C)cc(F)cc2c1CCNc1cc(-c2ccc(C(=O)O)c(OCC(C)C)c2)ncn1 [Example 184, 4-{6-[2-(5-Fluoro-2,7-dimethyl-benzo[b]thiophen-3-yl)-ethylamino]-pyrimidin-4-yl}-2-isobutoxy-benzoic acid] | 311 | 39
21 | CCCc1cc(-c2cc(NCCc3c(C)sc4c(C)cc(F)cc34)ncn2)ccc1CC(=O)O [Example 186, (4-{6-[2-(5-Fluoro-2,7-dimethyl-benzo[b]thiophen-3-yl)-ethylamino]-pyrimidin-4-yl}-2-propyl-phenyl)-acetic acid] | 242 | 309
22 | CCOc1cc(-c2cc(NCCc3c(C)sc4c(C)cc(F)cc34)ncn2)ccc1C(=O)C(=O)O [Example 189, (2-Ethoxy-4-{6-[2-(5-fluoro-2,7-dimethyl-benzo[b]thiophen-3-yl)-ethylamino]-pyrimidin-4-yl}-phenyl)-oxo-acetic acid] | 92 | 27
23 | CCCOc1cc(-c2cc(NCCc3c(C)sc4c(C)cc(F)cc34)ncn2)ccc1CC(=O)O [Example 190, (4-{6-[2-(5-Fluoro-2,7-dimethyl-benzo[b]thiophen-3-yl)-ethylamino]-pyrimidin-4-yl}-2-propoxy-phenyl)-acetic acid] | 200 | 274
